pIC50: −log10 of the molar value. In brackets after ≈: the same amount, converted by molar mass.
Columns and labels:
[1] = system: IL-17F; test: Cytokine assay: IL-17F production by human PBMC stimulated with PHA; type: cell-based; settings: Homo sapiens, PBMC, IC50 class, read-out: IL-17F Inhib.
Summary of the method: (§1)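 Human donor PBMC (1×10^5 cells/well) were activated with 2 μg/ml PHA and exposed to compounds for 48 h. Supernatant IL-17A, IL-17F and IFN-γ were measured by Luminex or ELISA. Screening used 10, 1, 0.1 and 0.01 μM; IC50 values came from semilogarithmic titrations.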

[2] = Microsomal stability: incubation with human liver microsomes, residual parent compound by HPLC-MS/MS; type: in vitro ADME; settings: pH 7.4; human liver microsomes, 1 μM compound, 0.5 mg/ml HLM, 37° C., up to 60 min; read-out: t1/2 hLM
Summary of the method: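 Compound at 1 μM final with 0.5 mg/ml pooled human liver microsomes and NADPH regenerating system, 0.1 M potassium phosphate pH 7.4, 0.4% DMSO, 37° C, sampled up to 60 min. Residual parent measured by HPLC-MS/MS; half-life and clearance from slope of remaining % of T0.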

[3] = system: INF-γ; test: Cytokine assay: INF-γ production by human PBMC stimulated with PHA; type: cell-based; settings: Homo sapiens, PBMC, IC50 class, read-out: IFN-gamma Inhib.
Summary of the method: as §1

[4] = system: IL-17A; test: Cytokine assay: IL-17A production by human PBMC stimulated with PHA; type: cell-based; settings: Homo sapiens, PBMC, IC50 class, read-out: IL-17A Inhib.
Summary of the method: as §1

[5] = Aqueous solubility in 50 mM phosphate buffer (HPLC/DAD); type: physicochemical; settings: 50 mM phosphate buffer, 23 °C, pH 7.4, aqueous buffer, kinetic from dmso stock, aqueous solubility class; read-out: aq. solub.
Summary of the method: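 Compound at 200 μM (1% DMSO final) shaken 24 h at 23° C in aqueous phosphate buffers at pH 4.0, 6.0, 7.4 and 9.0. Undissolved material removed by centrifugation (30 min, 18000 g). Supernatant concentration quantified by HPLC-UV against a 0.1–200 μg/ml standard curve in MeCN.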

| pIC50 [1] | half-life at 1 μM [2] | pIC50 [3] | pIC50 [4] | solubility at 24 h [5] | SMILES |
| --- | --- | --- | --- | --- | --- |
| > 7.30 | 2 to 9.99 min | ≤ 5.30 | > 7.30 | < 1 µM | CC(C)(O)CCn1ncc(-c2onc(-c3cccc(OCc4ccccc4)c3Cl)c2-c2ncccn2)c1C(F)(F)F [Example 128, 4-(4-{3-[3-(benzyloxy)-2-chlorophenyl]-4-(pyrimidin-2-yl)-1,2-oxazol-5-yl}-5-(trifluoromethyl)-1H-pyrazol-1-yl)-2-methylbutan-2-ol] |
| > 7.30 | 40 to 100 min | > 7.30 | > 7.30 | 3 to 9.99 µM (≈ 1.49 to 4.97 µg/mL) | COc1cccc(-c2noc(-c3cnn([C@H]4C[C@@](C)(O)C4)c3C(F)(F)F)c2COC2CC2)c1Cl [Example 130, 3-(4-(3-(2-chloro-3-methoxyphenyl)-4-(cyclopropoxymethyl)isoxazol-5-yl)-5-(trifluoromethyl)-1H-pyrazol-1-yl)-1-methylcyclobutan-1-ol] |
| > 7.30 | > 100 min | > 7.30 | > 7.30 | > 10 µM | CCOC(=O)c1c(-c2cccc(OC)c2Cl)noc1-c1cnn([C@H]2C[C@@](C)(O)C2)c1C(F)(F)F [Example 131, ethyl 3-(2-chloro-3-methoxyphenyl)-5-{1-[3-hydroxy-3-methylcyclobutyl]-5-(trifluoromethyl)-1H-pyrazol-4-yl}-1,2-oxazole-4-carboxylate] |
| > 7.30 | 40 to 100 min | > 7.30 | > 7.30 | 3 to 9.99 µM (≈ 1.51 to 5.01 µg/mL) | CCOC(=O)c1c(-c2cccc(OC)c2Cl)noc1-c1cnn(CCC(C)(C)O)c1C(F)(F)F [Example 132, ethyl 3-(2-chloro-3-methoxyphenyl)-5-[1-(3-hydroxy-3-methylbutyl)-5-(trifluoromethyl)-1H-pyrazol-4-yl]-1,2-oxazole-4-carboxylate] |
| 5.30 to 6.30 | > 100 min | 6.30 to 7.30 | 5.30 to 6.30 | > 10 µM | CCN(CC)CCCOc1cccc(-c2noc(-c3cnn(CCC(C)(C)O)c3C)c2-c2ncccn2)c1Cl [Example 147, 4-[4-(3-{2-chloro-3-[3-(diethylamino)propoxy]phenyl}-4-(pyrimidin-2-yl)-1,2-oxazol-5-yl)-5-methyl-1H-pyrazol-1-yl]-2-methylbutan-2-ol] |
| > 7.30 | 10 to 40 min | > 7.30 | > 7.30 | > 10 µM | C[C@@H](O)Cn1ncc(-c2onc(-c3cccc(C(=O)N4CCCC4)c3Cl)c2-c2ccncn2)c1C(F)(F)F [Example 160, (R)-(2-chloro-3-(5-(1-(2-hydroxypropyl)-5-(trifluoromethyl)-1H-pyrazol-4-yl)-4-(pyrimidin-4-yl)isoxazol-3-yl)phenyl)(pyrrolidin-1-yl)methanone] |

From patent US11292788B2, “IL-17 and IFN-gamma inhibition for the treatment of autoimmune diseases and chronic inflammation” (Immunic AG, priority 2017, dated 2022)
